Measurements: US20080008704A1, “Methods of treating colorectal cancer with anti-epidermal growth factor antibodies” (priority 2001, published 2008)
“Also recorded” adds a separate entry of the source.

Assays:
Format in all cases: in vivo, human
[1] = tested on: metastatic colon cancer (EGF receptor positive); assay: Example 1: patient with metastatic colon cancer treated with C225 and CPT-11; settings: IRINOTECAN 125 mg/m^2 weekly given with C225
Procedure: (§1) A patient presented with abdominal pain and constipation. […] Pathology confirmed metastatic colon cancer which is incurable. […] Since there were no other standard treatment options their tumor was assayed for EGF receptor which was positive.
For the first two weeks, IRINOTECAN® was administered at a dose of 125 mg/m^2.

[2] = tested on: metastatic colon cancer, liver metastasis; assay: Prior therapies of the Example 1 patient before C225; settings: same patient
Procedure: as §1

[3] = tested on: colon cancer relapse (unresectable peritoneal disease, pulmonary metastasis); assay: Example 2: same patient after relapse, treated again with C225 and dose reduced CPT-11, then C225 alone; settings: dose reduced CPT-11 with C225
Description: The subsequent history of the patient described in Example 1 is as follows. […] This was resected and subsequently they received both intrahepatic and systemic chemotherapy (FUDR and CPT-11) for 6 months.

Row | SMILES | toxicity causing IRINOTECAN dose to be held or reduced [1] | disease course on prior therapy [2] | tolerability of CPT-11 [3]
1 | CCc1c2c(nc3ccc(OC(=O)N4CCC(N5CCCCC5)CC4)cc13)-c1cc3c(c(=O)n1C2)COC(=O)[C@]3(O)CC [IRINOTECAN] | diarrhea; also recorded: neutropenia | continued to progress in the liver | discontinued secondary to toxicity
2 | O=c1[nH]cc(F)c(=O)[nH]1 [5-FU, 5-fluorouracil] |  | progressed with increasing liver metastasis | 
3 | O=C1[O][Pt]2([NH][C@@H]3CCCC[C@H]3[NH]2)[O]C1=O [OXALOPLATIN] |  | further disease progression in the liver | 
